Measured values taken from ChEMBL document CHEMBL3045810, “Synthesis and evaluation of 4-(substituted)-acetylamino-3-mercapto-5-(4-substituted) phenyl-1,2,4-triazole derivatives as antimicrobial agents” (2012).
Active and inactive are the calls of the source. No cut-off for these calls is given here.

Experiments:
[1] = test system: Escherichia coli; experiment: Antibacterial activity against Escherichia coli ATCC 8793 at 30 ug/ml after 24 hr by paper disk diffusion method; assay type: functional; conditions: ATCC 8793, 24 h, read-out: DIZ
[2] = test system: Bacillus subtilis; experiment: Antibacterial activity against Bacillus subtilis ATCC 6633 at 30 ug/ml after 24 hr by paper disk diffusion method; assay type: functional; conditions: ATCC 6633, 24 h, read-out: DIZ
[3] = test system: Staphylococcus aureus; experiment: Bactericidal activity against Staphylococcus aureus ATCC 25923; assay type: functional, organism-based
[4] = test system: Fusarium oxysporum; experiment: Antifungal activity against Fusarium oxysporum MTCC 2087 at 70 ug/ml by paper disk diffusion method; assay type: functional; conditions: read-out: DIZ
[5] = test system: Pseudomonas aeruginosa; experiment: Antibacterial activity against Pseudomonas aeruginosa ATCC 27853 at 50 ug/ml after 24 hr by paper disk diffusion method; assay type: functional; conditions: ATCC 27853, 24 h, read-out: DIZ
[6] = test system: Bacillus subtilis; experiment: Antibacterial activity against Bacillus subtilis ATCC 6633 at 50 ug/ml after 24 hr by paper disk diffusion method; assay type: functional; conditions: ATCC 6633, 24 h, read-out: DIZ
[7] = test system: Escherichia coli; experiment: Antibacterial activity against Escherichia coli ATCC 8793 at 70 ug/ml after 24 hr by paper disk diffusion method; assay type: functional; conditions: ATCC 8793, 24 h, read-out: DIZ
[8] = test system: Aspergillus niger; experiment: Antifungal activity against Aspergillus niger MTCC 3323 at 70 ug/ml by paper disk diffusion method; assay type: functional; conditions: read-out: DIZ
[9] = test system: Fusarium oxysporum; experiment: Fungicidal activity against Fusarium oxysporum MTCC 2087; assay type: functional, organism-based
[10] = test system: Aspergillus niger; experiment: Fungicidal activity against Aspergillus niger MTCC 3323; assay type: functional, organism-based
[11] = test system: Candida albicans; experiment: Antifungal activity against Candida albicans MTCC 227 at 30 ug/ml by paper disk diffusion method; assay type: functional; conditions: read-out: DIZ
[12] = test system: Fusarium oxysporum; experiment: Antifungal activity against Fusarium oxysporum MTCC 2087 at 50 ug/ml by paper disk diffusion method; assay type: functional; conditions: read-out: DIZ
[13] = test system: Bacillus subtilis; experiment: Antibacterial activity against Bacillus subtilis ATCC 6633 at 70 ug/ml after 24 hr by paper disk diffusion method; assay type: functional; conditions: ATCC 6633, 24 h, read-out: DIZ
[14] = test system: Aspergillus niger; experiment: Antifungal activity against Aspergillus niger MTCC 3323 at 50 ug/ml by paper disk diffusion method; assay type: functional; conditions: read-out: DIZ
[15] = test system: Candida albicans; experiment: Fungicidal activity against Candida albicans MTCC 227; assay type: functional, organism-based
[16] = test system: Pseudomonas aeruginosa; experiment: Antibacterial activity against Pseudomonas aeruginosa ATCC 27853 at 70 ug/ml after 24 hr by paper disk diffusion method; assay type: functional; conditions: ATCC 27853, 24 h, read-out: DIZ
[17] = test system: Aspergillus niger; experiment: Antifungal activity against Aspergillus niger MTCC 3323 at 30 ug/ml by paper disk diffusion method; assay type: functional; conditions: read-out: DIZ
[18] = test system: Staphylococcus aureus; experiment: Antibacterial activity against Staphylococcus aureus ATCC 25923 at 70 ug/ml after 24 hr by paper disk diffusion method; assay type: functional; conditions: ATCC 25923, 24 h, read-out: DIZ
[19] = test system: Fusarium oxysporum; experiment: Antifungal activity against Fusarium oxysporum MTCC 2087 at 30 ug/ml by paper disk diffusion method; assay type: functional; conditions: read-out: DIZ
[20] = test system: Pseudomonas aeruginosa; experiment: Bactericidal activity against Pseudomonas aeruginosa ATCC 27853; assay type: functional, organism-based
[21] = test system: Bacillus subtilis; experiment: Bactericidal against Bacillus subtilis ATCC 6633; assay type: functional, organism-based
[22] = test system: Escherichia coli; experiment: Bactericidal activity against Escherichia coli ATCC 8793; assay type: functional, organism-based
[23] = test system: Candida albicans; experiment: Antifungal activity against Candida albicans MTCC 227 at 50 ug/ml by paper disk diffusion method; assay type: functional; conditions: read-out: DIZ
[24] = test system: Candida albicans; experiment: Antifungal activity against Candida albicans MTCC 227 at 70 ug/ml by paper disk diffusion method; assay type: functional; conditions: read-out: DIZ
[25] = test system: Staphylococcus aureus; experiment: Antibacterial activity against Staphylococcus aureus ATCC 25923 at 50 ug/ml after 24 hr by paper disk diffusion method; assay type: functional; conditions: ATCC 25923, 24 h, read-out: DIZ
[26] = test system: Pseudomonas aeruginosa; experiment: Antibacterial activity against Pseudomonas aeruginosa ATCC 27853 at 30 ug/ml after 24 hr by paper disk diffusion method; assay type: functional; conditions: ATCC 27853, 24 h, read-out: DIZ
[27] = test system: Escherichia coli; experiment: Antibacterial activity against Escherichia coli ATCC 8793 at 50 ug/ml after 24 hr by paper disk diffusion method; assay type: functional; conditions: ATCC 8793, 24 h, read-out: DIZ
[28] = test system: Staphylococcus aureus; experiment: Antibacterial activity against Staphylococcus aureus ATCC 25923 at 30 ug/ml after 24 hr by paper disk diffusion method; assay type: functional; conditions: ATCC 25923, 24 h, read-out: DIZ

| SMILES | zone of inhibition at 30 µg/mL [1] | zone of inhibition at 30 µg/mL [2] | Activity [3] | zone of inhibition at 70 µg/mL [4] | zone of inhibition at 50 µg/mL [5] | zone of inhibition at 50 µg/mL [6] | zone of inhibition at 70 µg/mL [7] | zone of inhibition at 70 µg/mL [8] | Activity [9] | Activity [10] | zone of inhibition at 30 µg/mL [11] | zone of inhibition at 50 µg/mL [12] | zone of inhibition at 70 µg/mL [13] | zone of inhibition at 50 µg/mL [14] | Activity [15] | zone of inhibition at 70 µg/mL [16] | zone of inhibition at 30 µg/mL [17] | zone of inhibition at 70 µg/mL [18] | zone of inhibition at 30 µg/mL [19] | Activity [20] | also measured |
| --- | --- | --- | --- | --- | --- | --- | --- | --- | --- | --- | --- | --- | --- | --- | --- | --- | --- | --- | --- | --- | --- |
| CCCCN(CCCC)CC(=O)Nn1c(S)nnc1-c1ccc(C)cc1 | 11.2 mm | 10.3 mm | Active | 11.4 mm | 13.6 mm | 11.2 mm | 13.2 mm | 18 mm | Active | Active | 11.1 mm | 9.2 mm | 12.2 mm | 16.2 mm | Active | 14.1 mm | 15.1 mm | 14 mm | 8.17 mm | Active | Activity [21]: Active; Activity [22]: Active; zone of inhibition at 50 µg/mL [23]: 12.2 mm; zone of inhibition at 70 µg/mL [24]: 13.2 mm; zone of inhibition at 50 µg/mL [25]: 12.1 mm; zone of inhibition at 30 µg/mL [26]: 12.3 mm; zone of inhibition at 50 µg/mL [27]: 12.1 mm; zone of inhibition at 30 µg/mL [28]: 11.1 mm |
| Cc1ccc(-c2nnc(S)n2NC(=O)CN(C(C)C)C(C)C)cc1 | 8.2 mm | 7.2 mm | Active | 8.33 mm | 9.26 mm | 8.23 mm | 10.5 mm | 12.2 mm | inactive | inactive | 8.03 mm | 7.17 mm | 9.23 mm | 11 mm | inactive | 10.1 mm | 10.1 mm | 9.1 mm | 6.06 mm | Active | Activity [21]: Active; Activity [22]: Active; zone of inhibition at 50 µg/mL [23]: 9.16 mm; zone of inhibition at 70 µg/mL [24]: 10.1 mm; zone of inhibition at 50 µg/mL [25]: 8.2 mm; zone of inhibition at 30 µg/mL [26]: 8.3 mm; zone of inhibition at 50 µg/mL [27]: 9.2 mm; zone of inhibition at 30 µg/mL [28]: 7.3 mm |
| COc1ccc(-c2nnc(S)n2NC(=O)CN(C(C)C)C(C)C)cc1 | 9.43 mm | 8.5 mm | Active | 9.06 mm | 12.3 mm | 9.3 mm | 12.4 mm | 13 mm | inactive | inactive | 11.2 mm | 8.13 mm | 10.5 mm | 11.3 mm | inactive | 13.3 mm | 10.1 mm | 10.3 mm | 7.26 mm | Active | Activity [21]: Active; Activity [22]: Active; zone of inhibition at 50 µg/mL [23]: 12.1 mm; zone of inhibition at 70 µg/mL [24]: 13.8 mm; zone of inhibition at 50 µg/mL [25]: 9.26 mm; zone of inhibition at 30 µg/mL [26]: 11.1 mm; zone of inhibition at 50 µg/mL [27]: 10.3 mm; zone of inhibition at 30 µg/mL [28]: 8.2 mm |
